Reference: patent US11839614B2, “Methods for treating or mitigating cardiotoxicity characterized by inhibition of adenosine A2 signaling and/or adenosine A2 receptor expression” (INTRA-CELLULAR THERAPIES, INC., priority 2018, dated 2023)

Legend:
[1] = target: T1, r-hPDE1A (Homo sapiens, UniProt P54750); assay: Ki for full-length recombinant PDE1A; format: biochemical
T1 construct: Its Kis for full-length recombinant r-hPDE1A, 1B, and 1C are 34, 380, and 37 pM
Description: (§1) Additional pharmaceuticals used in the following examples are dobutamine (Hospira Inc., Lake Forest, Ill.), esmolol HCl (Mylan, Rockford, Ill.), MRS1754 (Tocris Bioscience, Bristol, UK), and Hespan (6% Hetastarch in 0.9% NaCl B. Braun Medical Inc., Bethlehem, Pa.).

[2] = target: T2, r-hPDE1C (Homo sapiens, UniProt Q14123); assay: Ki for full-length recombinant PDE1C; format: biochemical
T2 construct: Its Kis for full-length recombinant r-hPDE1A, 1B, and 1C are 34, 380, and 37 pM
Description: as §1

[3] = target: PDE4D (Homo sapiens, UniProt Q08499)
Description: as §1

[4] = Plasma Compound 1 levels in dogs (LC/MS-MS); format: in vivo; conditions: dog; for concentration at 10 min / concentration at 30 min / concentration at 120 min: mongrel, plasma; for concentration at 10 min / concentration at 30 min: iv; for concentration at 120 min: po, 10 mg, 10 mg P.O., 120 min post dose
Description: Dogs are studied in the conscious state before and after inducing dilated cardiomyopathy by tachypacing for two weeks at 200 bpm.
The study employs two doses, 0.01 and 0.1 mg/kg, the latter administered 30 minutes after the first.
(§2) Intravenous blood is placed in K2EDTA tubes, centrifuged at 2,000 g for 15 min, plasma decanted, and stored frozen. Compound 1 levels are assessed by a rapid, sensitive liquid chromatography-tandem mass spectrometric (LC/MS-MS) method.
The mobile phase consists of a gradient of 60-100% methanol over 4.5 minutes in 5 mM ammonium bicarbonate with 0.2% NH3H2O, pumped at a flow rate of 0.8 mL/min. Analysis time is 4.5 min and both the analyte and internal standard eluted around 2.0 min. Multiple reactions monitoring (MRM) mode is used to detect Compound 1. MS is operated in the positive ion detection mode. […] Calibration curves are linear from 0.02-500 ng/mL in dog plasma sample matrices. The lower limit of quantification (LLOQ) for plasma was 0.02 ng/mL.

[5] = tested on: plasma cAMP and cGMP; assay: Plasma cAMP and cGMP by ELISA in dogs; format: in vivo, dog
Description: Blood plasma is obtained from these animals, and cAMP and cGMP are assayed by ELISA.

[6] = tested on: rabbit heart and vasculature; assay: Anesthetized rabbit pressure-volume hemodynamics with or without esmolol or MRS-1754; format: in vivo
Description: Cyclic AMP is generated largely by transmembrane adenylyl cyclases activated via stimulatory G protein (Gs), with β-adrenergic, adenosine (primarily A2B), glucagon, prostanoids, histamine, and serotonin all coupling to Gs in cardiomyocytes. The present studies focus on beta-adrenergic and adenosine receptors, and for the latter, concentrated on the A2B receptor, which has been reported to directly stimulate cAMP-dependent contractility. […] Relaxation changes are also modest with LV preload (end-diastolic and volume) unaltered; however, the combined vasodilator-inotropic response doubled ventricular/arterial coupling ratio, Ees/Ea.
(§3) New Zealand White rabbits (male, 2-3 kg) are sedated with 35 mg/kg ketamine and 5 mg/kg xylazine, intubated and ventilated (Model 683, Harvard Apparatus, Holliston, Mass.), with anesthesia maintained with isoflurane inhalation (1-2%). A pressure-volume catheter (SPR-894, Millar, Inc., Houston, Tex.) is inserted via the common carotid artery and advanced to the LV apex, and a 2-Fr pacing catheter is positioned in the right atrium via the right jugular vein to provide atrial pacing. […] The parallel conductance is determined by the hypertonic saline injection method. Rabbits are infused with 6% hetastarch in saline during the procedure to stabilize arterial pressure.

[7] = Plasma level in rabbits (LC/MS-MS); format: in vivo; conditions: male, New Zealand White, iv, rabbit, 0.1 mg/kg i.v.
Description: as §3, §2
The mobile phase consists of a gradient of 60-100% methanol over 4.5 minutes in 5 mM ammonium bicarbonate with 0.2% NH3H2O, pumped at a flow rate of 0.8 mL/min. Analysis time is 4.5 min and both the analyte and internal standard eluted around 2.0 min. Multiple reactions monitoring (MRM) mode is used to detect Compound 1. MS is operated in the positive ion detection mode. […] The lower limit of quantification (LLOQ) for plasma was 0.02 ng/mL.

[8] = Plasma level in mice; format: in vivo; conditions: iv, mouse, 15 minutes after i.v. dosing
Description: Rabbit dosing at 0.1 mg/kg i.v. yields plasma values of 213±88 ng/mL at 15 min. Mouse plasma levels 15 minutes after i.v. dosing was 334+/−74 ng/mL. Therapeutic levels are 100-300 ng/mL, and so analysis is presented after 120 min for P.O. and after 20 min for i.v. (somewhat sooner in rabbit and mouse due to faster kinetics).
(§4) To test this, mice were administered the same or higher intravenous bolus doses (0.1, 0.5 mg/kg) as used in dogs and rabbits, and studied using a similar preparation to the rabbit.

[9] = tested on: murine heart; assay: Acute cardiovascular effects in intact mice; format: in vivo, mouse; conditions: intravenous bolus 0.1, 0.5 mg/kg
Description: as §4

[10] = tested on: adult rabbit myocytes; assay: Contraction and calcium transients in isolated rabbit cardiomyocytes; format: cell-based
Description: To test whether PDE1 inhibition directly impacts cardiomyocyte contraction and calcium transients, studies are carried out on normal adult rabbit myocytes. […] As PDE1 requires sufficient cAMP and Ca^2+ to be impactful, a dose response was performed to the adenylate cyclase activator, forskolin (FSK) to determine the lowest dose producing a modest but significant inotropic effect (1 μM).
Rabbit myocytes were isolated to determine the effect of PDE1 inhibition on cardiomyocyte contraction and whole cell Ca2+ transients, and to compare the results to those with a PDE3 inhibitor, cilostamide (Cil, 1 μM).
An alternative approach to augmenting cAMP independent of […] is to directly stimulate adenylate cyclase using forskolin (Fsk). A dose response study was carried out to identify a non-saturating Fsk dose that still generated significant inotropic effects (1 μM).

[11] = tested on: myocyte cAMP; assay: Whole cell cAMP in isolated rabbit myocytes; format: cell-based; conditions: agent added to Fsk
Description: This is consistent with prior studies showing locally generated cAMP from β-AR and its modulation by PDE3 occur in local subcellular domains that are not easily detected in whole cell lysates32.

[12] = 0.1 mg/kg, plasma Compound 1 concentration, normal dogs, 0.1 mg/kg i.v.
[13] = 0.1 mg/kg, plasma Compound 1 level, failing dogs, IV administration
[14] = Compound 1 added after forskolin 1 μM
[15] = agent added to non-saturating Iso
[16] = agent alone: Cil 1 μM, Compound 1 1 μM, Iso non-saturating dose
[17] = agent alone: Iso 50 nM, Compound 1 up to 1 mM, IBMX 100 μM

Sequence of PDE4D (Q08499 whole entry, species assumed): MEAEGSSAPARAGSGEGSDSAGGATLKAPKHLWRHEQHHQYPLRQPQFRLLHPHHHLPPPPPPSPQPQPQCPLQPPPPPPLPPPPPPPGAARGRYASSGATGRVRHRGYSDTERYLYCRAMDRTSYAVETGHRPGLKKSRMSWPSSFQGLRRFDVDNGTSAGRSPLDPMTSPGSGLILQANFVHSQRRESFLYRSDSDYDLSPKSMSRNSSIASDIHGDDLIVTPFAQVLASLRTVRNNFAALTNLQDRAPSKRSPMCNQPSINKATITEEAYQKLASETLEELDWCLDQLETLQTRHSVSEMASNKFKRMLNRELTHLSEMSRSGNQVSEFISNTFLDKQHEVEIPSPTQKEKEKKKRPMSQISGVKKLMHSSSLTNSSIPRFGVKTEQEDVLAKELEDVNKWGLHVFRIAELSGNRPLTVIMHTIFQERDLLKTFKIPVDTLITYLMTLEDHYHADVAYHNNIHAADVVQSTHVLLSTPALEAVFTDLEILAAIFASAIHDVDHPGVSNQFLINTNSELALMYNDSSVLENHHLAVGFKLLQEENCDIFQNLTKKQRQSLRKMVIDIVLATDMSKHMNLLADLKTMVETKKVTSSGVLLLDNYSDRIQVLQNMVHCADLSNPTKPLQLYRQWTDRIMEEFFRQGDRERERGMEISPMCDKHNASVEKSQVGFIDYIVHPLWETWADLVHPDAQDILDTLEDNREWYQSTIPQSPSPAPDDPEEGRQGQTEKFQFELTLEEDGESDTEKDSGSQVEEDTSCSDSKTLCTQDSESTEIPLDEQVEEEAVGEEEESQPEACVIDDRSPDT
T2 sequence (Q14123 whole entry): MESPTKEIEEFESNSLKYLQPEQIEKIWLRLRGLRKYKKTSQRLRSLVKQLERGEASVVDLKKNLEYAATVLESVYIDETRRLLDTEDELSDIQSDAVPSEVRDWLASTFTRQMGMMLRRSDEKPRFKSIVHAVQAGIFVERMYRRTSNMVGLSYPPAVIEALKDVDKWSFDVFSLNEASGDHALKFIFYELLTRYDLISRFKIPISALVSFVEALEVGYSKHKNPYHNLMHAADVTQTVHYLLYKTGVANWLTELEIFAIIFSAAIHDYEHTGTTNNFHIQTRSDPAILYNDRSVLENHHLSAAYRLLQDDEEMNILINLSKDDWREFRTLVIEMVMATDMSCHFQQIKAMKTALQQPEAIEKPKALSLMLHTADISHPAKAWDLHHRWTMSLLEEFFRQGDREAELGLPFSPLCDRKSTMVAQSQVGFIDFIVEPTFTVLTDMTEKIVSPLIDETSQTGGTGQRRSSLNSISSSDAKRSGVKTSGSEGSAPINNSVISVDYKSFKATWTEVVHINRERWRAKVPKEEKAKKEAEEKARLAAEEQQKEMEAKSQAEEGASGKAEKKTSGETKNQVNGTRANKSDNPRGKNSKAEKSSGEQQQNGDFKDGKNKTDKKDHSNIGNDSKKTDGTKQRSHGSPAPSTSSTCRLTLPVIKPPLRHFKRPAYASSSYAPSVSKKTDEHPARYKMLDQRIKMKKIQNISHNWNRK
T1 sequence (P54750 whole entry): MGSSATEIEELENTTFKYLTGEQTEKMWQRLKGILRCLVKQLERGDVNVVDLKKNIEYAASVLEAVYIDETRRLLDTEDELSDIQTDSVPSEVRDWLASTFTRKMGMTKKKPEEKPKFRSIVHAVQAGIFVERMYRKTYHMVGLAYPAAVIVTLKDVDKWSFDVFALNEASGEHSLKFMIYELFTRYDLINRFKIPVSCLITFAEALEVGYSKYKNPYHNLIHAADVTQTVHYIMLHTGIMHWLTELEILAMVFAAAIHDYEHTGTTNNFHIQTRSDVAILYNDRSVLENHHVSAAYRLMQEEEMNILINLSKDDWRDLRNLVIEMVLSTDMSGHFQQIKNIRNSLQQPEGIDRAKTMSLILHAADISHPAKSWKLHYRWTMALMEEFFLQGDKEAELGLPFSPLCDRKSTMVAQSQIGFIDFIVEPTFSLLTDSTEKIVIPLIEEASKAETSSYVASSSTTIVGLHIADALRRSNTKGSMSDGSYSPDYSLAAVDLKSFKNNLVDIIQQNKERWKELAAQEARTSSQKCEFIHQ

With `CN1C(=O)c2c(nn(Cc3ccc(-c4cccc(F)n4)cc3)c2Nc2ccccc2)N2C1=N[C@@H]1CCC[C@@H]12` [Compound 1, (6aR,9aS)-2-(4-(6-fluoropyridin-2-yl)benzyl)-5-methyl-3-(phenyl-amino)-5,6a,7,8,9,9a-hexahydrocyclopenta-[4,5]imidazo[1,2-a]pyrazolo[4,3-e]pyrimidin-4-(2H)-one monophosphate] the Ki [1] was 0.034 nM, the Ki [2] was 0.037 nM and the “greater activity toward PDE1 isoforms compared with PDE4D” value [3] was > 1000 fold. The “therapeutic levels (plasma)” value ([4]; in vivo) was 100 to 300 ng/mL, the concentration at 10 min ([4]; 0.01 mg/kg, plasma Compound 1 concentration, dogs, 0.01 mg/kg i.v.) was 23.6 ± 8.6 ng/mL and the concentration at 10 min [4, 12] was 211 ± 60.7 ng/mL. It also gave a concentration at 30 min [4, 12] of 94.5 ± 21.2 ng/mL, a concentration at 10 min [4, 13] of 441 ± 92.5 ng/mL and a concentration at 30 min [4, 13] of 185 ± 28.9 ng/mL. For the same compound, the concentration at 120 min ([4]; plasma Compound 1 concentration, HF dogs) was 178 ± 100 ng/mL, the concentration at 120 min ([4]; plasma Compound 1 concentration, normal dogs) was 104 ± 8.5 ng/mL and the “plasma cAMP” value ([5]; HF dogs, single drugs) was “not significantly changed”. The “plasma cGMP” value ([5]; all conditions, normal and HF models) was “remains unchanged”, the cardiac output ([6]; 0.1 mg/kg i.v. bolus alone) was “increases cardiac output” and the heart rate ([6]; 0.1 mg/kg i.v. bolus alone) was “modestly elevated heart rate”. The “rise in end-systolic elastance” value ([6]; 0.1 mg/kg i.v. bolus alone) was 50%, the “rise in pre-load recruitable stroke work” value ([6]; 0.1 mg/kg i.v. bolus alone) was 50% and the systemic resistance ([6]; 0.1 mg/kg i.v. bolus alone) was “lowered systemic resistance”. For the same compound, the systolic pressure ([6]; 0.1 mg/kg i.v. bolus alone) was “no change in systolic pressure”, the “contractile and vasodilation effects” value ([6]; Compound 1 after esmolol) was “remain intact” and the heart rate ([6]; Compound 1 after esmolol) was “no longer increases HR”. The “responses with heart rate fixed compared with heart rate allowed to change” value ([6]; atrially paced at ~20% above sinus node rate) was “nearly identical responses”, the concentration at 15 min [7] was 213 ± 88 ng/mL and the concentration at 15 min [8] was 334 ng/mL. The “hemodynamic or cardiac changes” value [9] was “failed to show any significant hemodynamic or cardiac changes”, the peak calcium transient [10, 14] was “remains unaltered” and the relaxation/calcium decay rates [10, 14] was “significantly increases”. The sarcomere shortening [10, 14] was “significantly increases”, the “shortening of calcium relaxation time constant, as share of the maximal achieved with IBMX” value ([10]; FSK+Compound 1 versus FSK+IBMX) was 67% and the “Ca2+ transient decay rate” value ([10]; agent added to Fsk 1 μM) was “enhanced the Ca2+ decay rate similarly to Cil”. For the same compound, the “peak Ca2+ transient” value ([10]; agent added to Fsk 1 μM) was “no corresponding increase in peak Ca2+ transient”, the sarcomere shortening ([10]; agent added to Fsk 1 μM) was “sarcomere shortening rose as with Cil” and the “peak-Ca2+” value [10, 15] was “no longer significantly different from pre-Iso baseline”. The sarcomere shortening [10, 15] was “did not change further”, the “decay kinetics / relaxation times” value [10, 16] was “this was not observed” and the “peak-Ca2+ transient” value [10, 16] was “this was not observed”. The percent sarcomere shortening [10, 16] was “this was not observed”, the “contraction/calcium decay time or rates” value [10, 17] was “no effect” and the “peak Ca2+ transient” value [10, 17] was “no effect”. For the same compound, the sarcomere shortening [10, 17] was “no effect” and the “whole cell cAMP” value [11] was “substantially increased”.
